From patent US9597297B2, “Combination of pilocarpin and methimazol for treating Charcot-Marietooth disease and related disorders” (PHARNEXT, priority 2008, dated 2017)

Assays:
PMP22 mRNA = PMP22 mRNA expression in primary rat Schwann cells after 24 hrs drug incubation; assay type: cell-based
Experimental: Vials of rat Schwann cells (SC) primary culture (Sciencell # R1700) are defrosted and seeded at the density of 10,000 cells/cm2 in “Sciencell Schwann cell medium” (basal medium from Sciencell # R1701) in poly-L-lysine pre-coated 75 cm^2 flasks. The culture medium is composed of basal medium, 5% Fetal Bovine Serum (3H-Biomedical AB #1701-0025), 1% Schwann cell growth supplement (3H Biomedical AB #1701-1752), 1% Gentamicin (Sigma #G1397) and 10 μM of Forskolin (Sigma # F6886) to promote their proliferation.
After reaching confluency (4 to 10 days depending on cell batch), Schwann cells are purified by gentle agitation or by thy1.1 immunopanning that allow SC isolation from adherent fibroblasts, to produce cultures that are at least 95% pure. SC are then counted (Tryptan blue method) and seeded in poly-L-lysine pre-coated 75 cm^2 flask in the same SC medium. At confluency, cells are rinsed, trypsinized (trypsin-EDTA 1× diluted from Invitrogen #1540054), diluted in PBS without calcium and magnesium) counted and platted in 12 well-dishes (140 000 cells/well) in Sciencell Schwann cell medium with 5% of FBS, 1% of cell growth supplement (CGS), 40 μg/ml of gentamicin and 4 μM Forskolin.
Primary Schwann cell cultures (SC) are established from Sprague-Dawley newborn rats (between P0 and P2) sciatic nerves. All newborn rats are sacrificed and isolated in a Petri dish. Dissection is performed under sterile conditions.
The dorsal skin is removed from the hind paw and the lower torso. The sciatic nerve is isolated and transferred to a culture dish containing ice-cold Leibovitz (L15, Invitogen #11415) supplemented with 1% penicillin/streptomycin solution (50 UI/ml and 50 μg/ml, respectively; Invitrogen #15070) and 1% of bovine serum albumin (BSA, Sigma A6003). Both nerves per rats are transferred in a 15 ml tube containing ice-cold L15. The L15 medium is then removed and replaced by 2.4 ml of DMEM (Invitrogen #21969035) with 10 mg/ml of collagenase ([…]). Nerves are incubated in this medium for 30 minutes at 37° C. The medium is then removed and both nerves are dissociated by trypsin (10% trypsin EDTA 10×, Invitrogen #15400054) diluted in PBS without calcium and magnesium (Invitrogen #2007-03) for 20 min at 37° C. […] Cells are counted (Tryptan blue method) and seeded in Falcon 100 mm Primaria tissue culture plates at the density of 5·10^5 to 10^6 cells/dish. […]
After 8 days of culture (4 to 10 days depending on cell batches), Schwann cells reach confluency and the culture, containing a large amount of contaminating fibroblasts, is purified by the thy1.1 immunopanning method. […] Once they reach confluency, cells are rinsed, trypsinized (trypsin-EDTA), counted and platted in 12 well-dishes (100 000 cells/well). […]

[1] = tested on: CMT transgenic rat model (PMP22 transgenic rats); assay: Electrophysiology: sensitive nerve potential amplitude (SNAP) in CMT rats; assay type: in vivo; details: CMT TG rats treated 20 weeks vs TG placebo
Experimental: When appropriate, the rats are subjected to electrophysiological evaluation: the sensitive nerve conduction velocity as well as latencies and potential amplitude are measured.
NCV measurement and potential acquisition (subcutaneous) were performed with the help of the chain composed of an amplificator (AM System 1700 and/or EMG-UTC), a stimulator (Havard apparatus 223) and a computer equipped with an acquisition card and a software for acquisition (SPATOL) and for the signal treatment (CALVISE).
Animals were anesthetized using ketamine/xalazine and maintained on the thermostated plate at 37° C. throughout the test (anaesthetics were supplemented as needed). Stimulating silver needle electrodes were inserted in the proximal part of the tail. The recording electrode was inserted subcutaneously through about 1 mm of skin in the distal part of the tail (4 and 6 cm from the stimulating electrode). Constant-current square-wave stimuli, […] in duration, were administered at a frequency of 0.3 per second. Responses, amplified 5.000-20.000, were visualized and collected on a computer based data acquisition system. Latencies were measured at each wave onset (defined as the first clearly identifiable deflection from the baseline). Peak to peak amplitudes of the largest deflections were calculated to determine maximum amplitude. For each recording, measurements were performed on the averaged responses to at least ten identical stimuli.
Sensory related conduction velocity (SNCV) was calculated by division of the distance between the stimulating cathodes by the difference between the correspondent latencies obtained from the two sites of stimulation.

Structure (SMILES)	dose inducing the most important PMP22 mRNA down-regulation (PMP22 mRNA; primary Schwann cells)	PMP22 mRNA level (PMP22 mRNA; primary rat Schwann cells, 1 mM or 1 μM of compound A)	SNAP (sensitive nerve potential amplitude), distal portion of the tail [1]	PMP22 mRNA level of expression (PMP22 mRNA; primary Schwann cells, low doses 10 nM and 50 nM)	SNAP (sensitive nerve potential amplitude), distal portion of the tail ([1]; listed as compound B)
Cn1cc[nH]c1=S [methimazole, 1-methyl-3H-imidazole-2-thione]	lower dose	significantly decreased	significantly improved	–	–
CC[C@@H]1C(=O)OC[C@@H]1Cc1cncn1C [pilocarpine, (3S,4R)-3-ethyl-4-[(3-methylimidazol-4-yl)methyl]oxolan-2-one]	1 µM	–	failed to reach statistical significance	significantly down-regulated	approaching the nominal 5% threshold for significance
